Measured values reported in ChEMBL document CHEMBL1151594, “Aromatic guanyl hydrazones: Synthesis, structural studies and in vitro activity against Trypanosoma cruzi” (1995).

Experiments:
Type in all cases: functional
Mus musculus [1] = organism: Mus musculus; assay: Effect on lysis of erythrocytes after 24 hr at 4 degree centigrade; Value given as 150-200
Trypanosoma cruzi = assay: In vitro inhibitory activity against trypomastigote form of Trypanosoma Cruzi.; details: read-out: ID50 (the source's name)
Mus musculus [2] = organism: Mus musculus; assay: Effect on lysis of erythrocytes after 24 hr at 4 degree centigrade; Value given as 500-600
Mus musculus [3] = organism: Mus musculus; assay: Effect on lysis of erythrocytes after 24 hr at 4 degree centigrade; Value given as 40-50
Mus musculus [4] = organism: Mus musculus; assay: Effect on lysis of erythrocytes after 24 hr at 4 degree centigrade; Value given as 300-400
Mus musculus [5] = organism: Mus musculus; assay: Effect on lysis of erythrocytes after 24 hr at 4 degree centigrade; Value given as 100-150
Mus musculus [6] = organism: Mus musculus; assay: Effect on lysis of erythrocytes after 24 hr at 4 degree centigrade; Value given as 75-100
Mus musculus [7] = organism: Mus musculus; assay: Effect on lysis of erythrocytes after 24 hr at 4 degree centigrade; Value given as 500-700
Mus musculus [8] = organism: Mus musculus; assay: Effect on lysis of erythrocytes after 24 hr at 4 degree centigrade; Value given as 400-500
Mus musculus [9] = organism: Mus musculus; assay: Effect on lysis of erythrocytes after 24 hr at 4 degree centigrade; Value given as 250-300
Mus musculus [10] = organism: Mus musculus; assay: Effect on lysis of erythrocytes after 24 hr at 4 degree Centigrade
Mus musculus [11] = organism: Mus musculus; assay: Effect on lysis of erythrocytes after 24 hr at 4 degree centigrade; Value given as 1200-1400
Mus musculus [12] = organism: Mus musculus; assay: Effect on lysis of erythrocytes after 24 hr at 4 degree centigrade; Value given as 50-75
Mus musculus [13] = organism: Mus musculus; assay: Effect on lysis of erythrocytes after 24 hr at 4 degree centigrade; Value given as 700-1000

For `Cl.N=C(N)N/N=C/c1ccc([N+](=O)[O-])cc1`, the Total lysis (Mus musculus [1]) was 150 µM and the IC50 (Trypanosoma cruzi) was 55.9 µM.

Work on `COc1ccc(OC)c(/C=N/NC(=N)N)c1.Cl` yielded a Total lysis (Mus musculus [1]) of 150 µM and an IC50 (Trypanosoma cruzi) of 41.4 µM.

Work on `COc1ccccc1/C=N/NC(=N)N.Cl` yielded a Total lysis (Mus musculus [1]) of 150 µM and an IC50 (Trypanosoma cruzi) of 86.3 µM.

`CN(C)c1ccc(/C=N/NC(=N)N)cc1.Cl` was tested, and the IC50 (Trypanosoma cruzi) was 202 µM and the Total lysis (Mus musculus [2]) was 500 µM.

`Cl.N=C(N)N/N=C/c1cc2c(cc1[N+](=O)[O-])OCO2` was tested, and the Total lysis (Mus musculus [3]) was 40 µM and the IC50 (Trypanosoma cruzi) was 17.1 µM.

`Cl.N=C(N)N/N=C/c1ccccc1O` showed a Total lysis (Mus musculus [4]) of 300 µM and an IC50 (Trypanosoma cruzi) of 166 µM.

With `COc1ccc(/C=N/NC(=N)N)c(OC)c1.Cl` the IC50 (Trypanosoma cruzi) was 33.8 µM and the Total lysis (Mus musculus [5]) was 100 µM.

`CCOc1ccccc1/C=N/NC(=N)N.Cl` showed a Total lysis (Mus musculus [6]) of 75 µM and an IC50 (Trypanosoma cruzi) of 34.7 µM.

`Cl.N=C(N)N/N=C/c1ccccc1[N+](=O)[O-]` was tested, and the Total lysis (Mus musculus [1]) was 150 µM and the IC50 (Trypanosoma cruzi) was 87.5 µM.

For `Cl.N=C(N)N/N=C/c1cccc([N+](=O)[O-])c1`, the Total lysis (Mus musculus [7]) was 500 µM and the IC50 (Trypanosoma cruzi) was 183 µM.

With `Cl.N=C(N)N/N=C/c1ccccc1N` the IC50 (Trypanosoma cruzi) was 261 µM and the Total lysis (Mus musculus [2]) was 500 µM.

In the case of `Cl.N=C(N)N/N=C/c1ccccc1`, the Total lysis (Mus musculus [8]) is reported as 400 µM.

For `CCOc1cccc(/C=N/NC(=N)N)c1O.Cl`, the Total lysis (Mus musculus [1]) was 150 µM and the IC50 (Trypanosoma cruzi) was 97.8 µM.

Compound `Cc1ccc(/C=N/NC(=N)N)cc1.Cl` has an IC50 (Trypanosoma cruzi) of 103 µM and a Total lysis (Mus musculus [9]) of 250 µM.

For `Cl.N=C(N)N/N=C/c1cccc([N+](=O)[O-])c1O`, the Total lysis (Mus musculus [10]) was greater than 1400 µM and the IC50 (Trypanosoma cruzi) was 876 µM.

Work on `Cl.N=C(N)N/N=C/c1cc2c(cc1N)OCO2` yielded an IC50 (Trypanosoma cruzi) of 221 µM and a Total lysis (Mus musculus [2]) of 500 µM.

Work on `Cl.N=C(N)N/N=C/c1ccc(C(=O)O)cc1` yielded a Total lysis (Mus musculus [11]) of 1200 µM and an IC50 (Trypanosoma cruzi) of 573 µM.

With `Cl.N=C(N)N/N=C/c1cc2c(cc1Br)OCO2` the Total lysis (Mus musculus [12]) was 50 µM.

`Cl.N=C(N)N/N=C/c1ccc2c(c1)OCO2` was tested, and the Total lysis (Mus musculus [13]) was 700 µM.

`COc1cc(/C=N/NC(=N)N)ccc1O` was tested, and the IC50 (Trypanosoma cruzi) was greater than 4800 µM.

`COc1cccc(/C=N/NC(=N)N)c1OC.Cl` was tested, and the Total lysis (Mus musculus [6]) was 75 µM.

Compound `Cl.N=C(N)N/N=C/c1ccc(Cl)cc1` has a Total lysis (Mus musculus [5]) of 100 µM.

`CN(C)c1ccc(C(=C2C=CC(=[N+](C)C)C=C2)c2ccc(N(C)C)cc2)cc1` [GENTIAN VIOLET] gave an IC50 (Trypanosoma cruzi) of 536 µM.
